Source: patent US11315778B2, “Spray chambers and methods of using them” (PERKINELMER HEALTH SCIENCES CANADA, INC., priority 2016, dated 2022)

Columns and labels:
Format in all cases: cell-based
[1] = tested on: A2780/CP70 ovarian cancer cell line; assay: Cisplatin uptake time course, single cell ICP-MS
Experimental: (§1) Cisplatin uptake in two ovarian cancer cell lines was evaluated using single particle ICP-MS (SP-ICP-MS). The ovarian cancer cell lines A2780 and A2780/CP70 were used in all experiments. Cells were grown in RPMI […] media (Gibco™) supplemented with 10% fetal bovine serum (FBS, Gibco™), insulin (Sigma-Aldrich™), 1-glutamine (Gibco™), and pen/strep (Gibco™) under 5% CO2 at 37° C. For serum starvation experiments, cells were plated and allowed to attach to the dishes. The media was removed and replaced with serum-free media for approximately 18 hours after which the media was replaced with regular media to begin cisplatin treatment. Cisplatin was re-suspended at 1 mg/mL in sterile saline and vigorously shaken for 30 minutes prior to treatment. Cells were treated with 30μM cisplatin for a time course where samples were collected at 1, 2, 4, and 8 hours post-treatment. For analysis, cells were washed twice with phosphate-buffered saline (PBS) and collected using the non-enzymatic cell dissociation solution Cellstripper (Corning™). Cells were centrifuged at 500×g for 10 minutes. The supernatant was discarded, and the cells were resuspended in 1 mL PBS, filtered through a 70μm nylon mesh, and quantitated by hemocytometer counting. Cells were diluted in PBS to a final concentration of 100,000 cells/mL and kept on ice until injection.
(§2) Analyses were performed with PerkinElmer's NexION® ICP-MS using the Syngistix™ Single Cell Application Software Module for data collection and processing. Instrumental conditions were as follows: sample uptake rate 0.04 mL/minute, 2.0 mm id quartz injector, 1600 Watts RF power, 0.36 L/minute nebulizer gas flow rate, 0.7 L/minute makeup gas flow rate, and a 60 second sample analysis time. A Meinhard HEN nebulizer and the spray chamber of FIG. 2 were also used (though the spray chambers of FIGS. 3, 4 and 5A-5D could be used instead). The Single Cell Sample Introduction Kit (Part No. N8150031) was used for sample introduction to the NexION. The kit consists of a high-efficiency nebulizer (Part No. N8142046) and the spray chamber designed for transport of cells to the plasma. Cells (1-100 microns) are larger than droplets which typically pass through conventional spray chambers (less than 2 microns).
(§3) Ionic platinum standards were prepared in PBS to matrix match the cell sample. A standard curve was generated using 1, 2, and 3 ppb platinum standard. Transport efficiency was determined using […] gold nanoparticles in PBS.
(§4) The cells chosen for this study are the ovarian cancer cell lines A2780 and A2780/CP70, which are good models for developing the single cell method since the molecular mechanism for resistance […]. A2780 is a cisplatin-sensitive cell line, while the A2780/CP70 line is cisplatin resistant. This resistance was developed by exposing the A2780 parental cell line to increasing doses of cisplatin. The A2780/CP70 cells developed resistance by reducing cisplatin uptake in addition to up-regulating DNA repair. We explored cisplatin uptake by performing a time course experiment to analyze how the distribution of cisplatin uptake changed over time within the cellular population. Both cell lines were treated for 1, 2, 4, and 8 hours with 30μM cisplatin. […] After the data is collected, the mass distribution peak can be integrated, as shown in FIG. 30C (frequency vs mass(ag)).
(§5) The time course data was summarized by fitting each histogram with a Log Normal curve. The mean intensity was determined for each time point and plotted to show the cisplatin uptake difference between A2780 and A2780/CP70 cells over time, as shown in FIG. 33.

[2] = tested on: A2780 ovarian cancer cell line; assay: Cisplatin uptake time course, single cell ICP-MS
Experimental: as §1, §2, §3, §4, §5

[3] = tested on: ovarian cancer cell line (CP70); assay: Single cell ICP-MS of cisplatin-exposed CP70 cells (195Pt monitored); settings: over the course of eight hours, FIG. 21
Experimental: A cell suspension can be nebulized by introducing the cell suspension through a nebulizer fluidically coupled to a spray chamber as described herein. The spray chamber can select individual cells and provide them to an inductively coupled plasma. As each cell enters the plasma, it is ionized, and the resulting ion burst from the intrinsic metal species is detected by a mass spectrometer. Each cell is treated the same as an individual particle. Cell concentrations can desirably be around 100,000 cell/mL to minimize coincidence—a situation where to cells are provided at the same time to the plasma.
To determine the effectiveness of detection of cisplatin using single cell ICP-MS using the spray chambers described herein, an ovarian cancer cell line (CP70) was exposed to cisplatin and monitored over time. Analyses were carried out on a PerkinElmer NexION 350 D ICP-MS with a 2 mm quartz injector and quartz torch operating with an RF power of 1600 W. A spray chamber as shown in FIG. 2 (though the spray chambers of FIGS. 3, 4 and 5A-5D could be used instead) can be used with a high efficiency concentric glass nebulizer (Meinhard) was used with the spray chamber and the NexION 350 D instrument.
Because background levels of Pt are non-existent and there are no common interferences on 195Pt, each spike represents Pt detected in an individual cell. […]

In the case of `N.N.[Cl][Pt][Cl]` [cisplatin], the uptake of platinum ([1]; A2780/CP70, 30μM cisplatin, one hour of treatment) is reported as “very little uptake of platinum”, the “effect of serum starvation on cisplatin uptake” value ([1]; A2780/CP70, serum-starved vs control cells, FIGS. 34A and 34B) is reported as “no effect on the uptake of cisplatin” and the uptake of platinum ([2]; A2780, 30μM cisplatin, one hour of treatment) is reported as “very little uptake of platinum”. For the same molecule, the “effect of serum starvation on cisplatin uptake” value ([2]; A2780, serum-starved vs control cells, FIGS. 34A and 34B) was “no effect on the uptake of cisplatin”, the “cisplatin uptake over time (mean intensity of Log Normal fit)” value ([2]; A2780 vs A2780/CP70, 30μM cisplatin, 1-8 hours, FIG. 33) was “increased cisplatin uptake” and the “population of cells by cisplatin content, comparison of cell lines” value ([2]; A2780 vs A2780/CP70, 30μM cisplatin, eight hours) was “increased population of cells with more cisplatin than A2780/CP70”. The “Pt content within cells (cisplatin uptake)” value [3] was “increases over time”.
